Source: PMC9847585 (ACS infectious diseases, 2021)
In brackets after ≈: the same amount, converted by molar mass. Read-outs that look alike come from different tables or passages of the source.

Columns and labels:
[1] = system: tPBP2^H041; test: time-dependent gel-based assay, second-order acylation by Bocillin-FL; type: biochemical, Neisseria gonorrhoeae; details: time-course, pH 8.0, room temperature
[2] = system: tPBP2^H041-K361E; test: time-dependent gel-based assay, acylation of K361E mutant by Bocillin-FL; type: biochemical, Neisseria gonorrhoeae
[3] = system: N. gonorrhoeae H041; test: minimum inhibitory concentration by agar dilution; type: cell-based, Neisseria gonorrhoeae
[4] = system: tPBP2^H041-K361E; test: gel-based competition assay with Bocillin-FL against K361E mutant; type: biochemical, Neisseria gonorrhoeae; details: for Fractional Activity: fractional acylation rate of K361E compared to native tPBP2^H041; for K361E k2/Ks: tPBP2^H041-K361E mutant, competition with Bocillin-FL; for reduction in acylation rate against K361E mutant: K361E versus native tPBP2^H041
[5] = system: N. gonorrhoeae strain H041
[6] = cited from earlier work
[7] = system: tPBP2^H041; test: gel-based competition assay with Bocillin-FL, second-order acylation rate; type: biochemical, Neisseria gonorrhoeae
[8] = system: (non-mosaic) PBP2; details: membrane preparations; cited from earlier work
[9] = whole molecule; cited from earlier work
[10] = system: wild-type PBP2 (tPBP2^WT); details: cited from earlier work
[11] = system: FA19 with mosaic penA gene from H041 (penA41); details: allelic exchange; cited from earlier work
[12] = system: H041; details: cited from earlier work
[13] = system: tPBP2^H041; details: cited from earlier work
[14] = Neisseria gonorrhoeae, H041, 24 h

## Cc1cc(C)n2c1C=C1C=CC(CCC(=O)Nc3ccc(OCC(=O)N[C@@H]4C(=O)N5[C@@H]4SC(C)(C)[C@@H]5C(=O)[O-])cc3)=[N+]1[B-]2(F)F.[Na+] [Bocillin-FL]
[1]
  second-order acylation rate k2/Ks of Bocillin-FL: 275 ± 9 M⁻¹ s⁻¹
[2]; compared to the native enzyme
  decrease in Bocillin-FL acylation rate against K361E: 5 fold
[2]; tPBP2^H041-K361E mutant, time-course
  second-order acylation rate of Bocillin-FL against K361E: 57 ± 1 M⁻¹ s⁻¹

## N[C@@H](C(=O)N[C@@H]1C(=O)N2C(C(=O)O)=C(Cl)CS[C@H]12)c1ccccc1 [cefaclor]
[3]; [14]
  MIC: ≥ 32 µg/mL

## C=CC1=C(C(=O)O)N2C(=O)[C@@H](NC(=O)/C(=N\O)c3csc(N)n3)[C@H]2SC1 [cefdinir]
[3]; [14]
  MIC: 2 µg/mL (≈ 5.06 µM)

## CO/N=C(\C(=O)N[C@@H]1C(=O)N2C(C(=O)[O-])=C(C[N+]3(C)CCCC3)CS[C@H]12)c1csc(N)n1 [cefepime]
[4]
  Fractional Activity: 0.64
  K361E k2/Ks: 410 ± 130 M⁻¹ s⁻¹

## CCN1CCN(C(=O)N[C@@H](C(=O)N[C@@H]2C(=O)N3C(C(=O)O)=C(CSc4nnnn4C)CS[C@H]23)c2ccc(O)cc2)C(=O)C1=O [cefoperazone]
[5]; 120 mg/kg TID one day, intraperitoneal, by day 3 post-treatment, n = 9
  culture negativity: 100%
[4]
  reduction in acylation rate against K361E mutant: 32 fold
  Fractional Activity: 0.03
  K361E k2/Ks: 370 ± 60 M⁻¹ s⁻¹
[3]; [14]
  MIC: 1 µg/mL (≈ 1.55 µM)
[6]
  route of excretion: primarily biliary
[7]
  acylation rate relative to ceftriaxone (faster): 7 fold
[8]
  concentration at which bound to PBP2: less than 10^−3 μg/mL

## CO[C@@]1(NC(=O)Cc2cccs2)C(=O)N2C(C(=O)O)=C(COC(N)=O)CS[C@@H]21 [cefoxitin]
[3]; 24 hr
  MIC: 3 µg/mL (≈ 7.02 µM)
[3]; [14]
  MIC: 4 µg/mL (≈ 9.36 µM)

## Cc1cc(O)c(C(=O)N[C@@H](C(=O)N[C@@H]2C(=O)N3C(C(=O)O)=C(CSc4nnnn4C)CS[C@H]23)c2ccc(O)cc2)cn1 [cefpiramide]
[7]
  k2/Ks lower than cefoperazone: 100 fold

## NC(=O)c1cc[n+](CC2=C(C(=O)O)N3C(=O)[C@@H](NC(=O)[C@@H](c4ccccc4)S(=O)(=O)[O-])[C@H]3SC2)cc1 [cefsulodin]
[3]; [14]
  MIC: ≥ 32 µg/mL

## CCO/N=C(\C(=O)N[C@@H]1C(=O)N2C(C(=O)[O-])=C(Sc3nc(-c4cc[n+](C)cc4)cs3)CS[C@H]12)c1nsc(N)n1 [ceftaroline]
[9]
  logD7.4: 1.03

## CC(C)(O/N=C(\C(=O)N[C@@H]1C(=O)N2C(C(=O)[O-])=C(C[n+]3ccccc3)CS[C@H]12)c1csc(N)n1)C(=O)O [ceftazidime]
[4]
  Fractional Activity: 0.70
  K361E k2/Ks: 560 ± 180 M⁻¹ s⁻¹
[3]; [14]
  MIC: ≥ 32 µg/mL

## CO/N=C(\C(=O)N[C@@H]1C(=O)N2C(C(=O)O)=C(CSc3nc(=O)c(=O)[nH]n3C)CS[C@H]12)c1csc(N)n1 [ceftriaxone]
[10]
  k3 (deacylation rate) of acylated complex: 2.8e-06 s⁻¹
[4]
  reduction in acylation rate against K361E mutant: 6 fold
  Fractional Activity: 0.17
  K361E k2/Ks: 290 ± 70 M⁻¹ s⁻¹
[3]; [14]
  MIC: 2 µg/mL (≈ 3.61 µM)
[6]
  route of excretion: primarily renal
[11]
  increase in MIC on replacing wild-type penA in FA19 with penA41: 570 fold
[12]; H041 versus FA19
  increase in MIC compared to strain FA19: 3,000 fold
[12]; strain H041
  MIC: 2 µg/mL (≈ 3.61 µM)
[13]
  k3 (deacylation rate) of acylated complex: 8.1e-05 s⁻¹

## CC1=C(C(=O)O)N2C(=O)[C@@H](NC(=O)[C@H](N)c3ccccc3)[C@H]2SC1 [cephalexin]
[3]; [14]
  MIC: ≥ 32 µg/mL

## CC(=O)OCC1=C(C(=O)O)N2C(=O)[C@@H](NC(=O)Cc3cccs3)[C@H]2SC1 [cephalothin]
[3]; [14]
  MIC: ≥ 32 µg/mL

## CNC(C)C1CCC(N)C(OC2C(N)CC(N)C(OC3OCC(C)(O)C(NC)C3O)C2O)O1 (stereo not shown) [gentamicin]
[5]; 48 mg/kg once a day for 5 days (5QD), by day 4 after initiation of treatment, n = 8
  culture negativity: 100%
[5]; 48 mg/kg once a day for 5 days (5QD), n = 8
  mean time-to-clearance: 3.1 days
